From patent publication US8481586B2, “Pyrrolo[2,3-a] carbazoles and use thereof as PIM kinase inhibitors” (Centre National de la Recherche Scientifique, priority 2008, dated 2013)
Read-outs that look alike come from different tables or passages of the source.

Tests used:
Format in all cases: biochemical
PIM-2 = PIM-2 (Homo sapiens (Human), UniProt Q9P1W9); assay: inhibition test on kinase PIM-2 (residual activity, IC50)
Description: (§1) MKK1, ERK 1, ERK 2, JNK1, JNK2, JNK3, p38a MAPK, p38b MAPK, p38g MAPK, p38s MAPK, ERK8, RSK1, RSK2, PDK1, PKBa, PKBb, SGK1, S6K1, PKA, ROCK2, PRK2, PKCa, PKC zeta, PKD1, MSK1, MNK1, MNK2, MAPKAP-K2, MAPKAP-K3, PRAK, CAMKKa, CAMKKb, CAMK1, SmMLCK, PHK, CHK1, CHK2, GSK3b, CDK2/cyclin A, PLK1, PLK1 (Okadaic acid), Aurora B, Aurora C, AMPK, MARK3, BRSK2, MELK, CK1, CK2, NEK2a, NEK6, NEK7, IKKb, PIM-1, PIM-2, PIM-3, SRPK1, MST2, EF2K, HIPK2, HIPK3, PAK-4, PAK5, PAK6, Src, Lck, CSK.
(§2) The results in terms of residual activity of the kinases after being placed in contact with the compounds of Examples 2, 3 and 5, at a concentration of 10 μM (10 μmol/L), are shown in Table 1 below.
(§3) The higher the residual activity of the kinase tested, the lower the inhibitory activity of the test compounds on the tested kinase.
(§4) The compounds according to the invention were then tested on the kinases PIM-1, PIM-2 and PIM-3.
(§5) The results in terms of percentage of residual activity after placing the compounds according to the invention in contact with each of the kinases PIM-1, PIM-2 and PIM-3 are given in Table 2 below.
(§6) The higher the residual activity, the lower the inhibitory activity of the test compounds.
(§7) The mean inhibitory concentrations (IC50) of certain preferred compounds of the invention were determined in the following manner: the IC50 values were measured after performing the inhibition tests on the kinases PIM-1, PIM-2 and PIM-3 at ten different concentrations for each test compound, and the IC50 value was determined from the dose-inhibition curves obtained.

PIM-3 = PIM-3 (Homo sapiens (Human), UniProt Q86V86); assay: inhibition test on kinase PIM-3 (residual activity, IC50)
Description: as §1, §2, §3, §4, §5, §6, §7

PIM-1 = PIM-1 (Homo sapiens (Human), UniProt P11309); assay: inhibition test on kinase PIM-1 (residual activity, IC50)
Description: as §1, §2, §3, §4, §5, §6, §7

CK1 = assay: kinase panel residual activity test; conditions: compound at 10 μM
Description: as §1

NEK6 = NEK6 (Homo sapiens (Human), UniProt Q9HC98); assay: kinase panel residual activity test; conditions: compound at 10 μM
Description: as §1

EF2K = EF2K (Homo sapiens (Human), UniProt O00418); assay: kinase panel residual activity test; conditions: compound at 10 μM
Description: as §1

SmMLCK = assay: kinase panel residual activity test; conditions: compound at 10 μM
Description: as §1

MARK3 = MARK3 (Homo sapiens (Human), UniProt P27448); assay: kinase panel residual activity test; conditions: compound at 10 μM
Description: as §1

PAK6 = PAK6 (Homo sapiens (Human), UniProt Q9NQU5); assay: kinase panel residual activity test; conditions: compound at 10 μM
Description: as §1

ERK2 = ERK2 (Homo sapiens (Human), UniProt P28482); assay: kinase panel residual activity test; conditions: compound at 10 μM
Description: as §1

MNK1 = MNK1 (Homo sapiens (Human), UniProt Q9BUB5); assay: kinase panel residual activity test; conditions: compound at 10 μM
Description: as §1

CHK2 = CHK2 (Homo sapiens (Human), UniProt O96017); assay: kinase panel residual activity test; conditions: compound at 10 μM
Description: as §1

CDK2/cyclin A = CDK2/cyclin A (Homo sapiens (Human), UniProt P24941); assay: kinase panel residual activity test; conditions: compound at 10 μM
Description: as §1

PAK5 = PAK5 (Homo sapiens (Human), UniProt Q9P286); assay: kinase panel residual activity test; conditions: compound at 10 μM
Description: as §1

MKK1 = MKK1 (Homo sapiens (Human), UniProt Q02750); assay: kinase panel residual activity test; conditions: compound at 10 μM
Description: as §1

Lck = Lck (Homo sapiens (Human), UniProt P06239); assay: kinase panel residual activity test; conditions: compound at 10 μM
Description: as §1

AMPK = assay: kinase panel residual activity test; conditions: compound at 10 μM
Description: as §1

CK2 = assay: kinase panel residual activity test; conditions: compound at 10 μM
Description: as §1

ROCK2 = ROCK2 (Homo sapiens (Human), UniProt O75116); assay: kinase panel residual activity test; conditions: compound at 10 μM
Description: as §1

Aurora B = Aurora B (Homo sapiens (Human), UniProt Q96GD4); assay: kinase panel residual activity test; conditions: compound at 10 μM
Description: as §1

RSK1 = RSK1 (Homo sapiens (Human), UniProt Q15418); assay: kinase panel residual activity test; conditions: compound at 10 μM
Description: as §1

MNK2 = MNK2 (Homo sapiens (Human), UniProt Q9HBH9); assay: kinase panel residual activity test; conditions: compound at 10 μM
Description: as §1

MELK = MELK (Homo sapiens (Human), UniProt Q14680); assay: kinase panel residual activity test; conditions: compound at 10 μM
Description: as §1

RSK2 = RSK2 (Homo sapiens (Human), UniProt P51812); assay: kinase panel residual activity test; conditions: compound at 10 μM
Description: as §1

NEK7 = NEK7 (Homo sapiens (Human), UniProt Q8TDX7); assay: kinase panel residual activity test; conditions: compound at 10 μM
Description: as §1

BRSK2 = BRSK2 (Homo sapiens (Human), UniProt Q8IWQ3); assay: kinase panel residual activity test; conditions: compound at 10 μM
Description: as §1

SGK1 = SGK1 (Homo sapiens (Human), UniProt O00141); assay: kinase panel residual activity test; conditions: compound at 10 μM
Description: as §1

JNK3 = JNK3 (Homo sapiens (Human), UniProt P53779); assay: kinase panel residual activity test; conditions: compound at 10 μM
Description: as §1

SRPK1 = SRPK1 (Homo sapiens (Human), UniProt Q96SB4); assay: kinase panel residual activity test; conditions: compound at 10 μM
Description: as §1

p38g MAPK = p38g MAPK (Homo sapiens (Human), UniProt P53778); assay: kinase panel residual activity test; conditions: compound at 10 μM
Description: as §1

[1] = compound at 10 μM, Table 1 panel, read-out: % residual activity PIM-2
[2] = product at 10 μmol/L, Table 2, N.I. = not inhibitory, read-out: Percentage of residual activity PIM-2
[3] = compound at 10 μM, Table 1 panel, read-out: % residual activity PIM-3
[4] = product at 10 μmol/L, Table 2, N.I. = not inhibitory, read-out: Percentage of residual activity PIM-3
[5] = compound at 10 μM, Table 1 panel, read-out: % residual activity PIM-1
[6] = product at 10 μmol/L, Table 2, N.I. = not inhibitory, read-out: Percentage of residual activity PIM-1
[7] = ten concentrations, dose-inhibition curve

BRSK2, sequence (Q8IWQ3 whole entry, species assumed): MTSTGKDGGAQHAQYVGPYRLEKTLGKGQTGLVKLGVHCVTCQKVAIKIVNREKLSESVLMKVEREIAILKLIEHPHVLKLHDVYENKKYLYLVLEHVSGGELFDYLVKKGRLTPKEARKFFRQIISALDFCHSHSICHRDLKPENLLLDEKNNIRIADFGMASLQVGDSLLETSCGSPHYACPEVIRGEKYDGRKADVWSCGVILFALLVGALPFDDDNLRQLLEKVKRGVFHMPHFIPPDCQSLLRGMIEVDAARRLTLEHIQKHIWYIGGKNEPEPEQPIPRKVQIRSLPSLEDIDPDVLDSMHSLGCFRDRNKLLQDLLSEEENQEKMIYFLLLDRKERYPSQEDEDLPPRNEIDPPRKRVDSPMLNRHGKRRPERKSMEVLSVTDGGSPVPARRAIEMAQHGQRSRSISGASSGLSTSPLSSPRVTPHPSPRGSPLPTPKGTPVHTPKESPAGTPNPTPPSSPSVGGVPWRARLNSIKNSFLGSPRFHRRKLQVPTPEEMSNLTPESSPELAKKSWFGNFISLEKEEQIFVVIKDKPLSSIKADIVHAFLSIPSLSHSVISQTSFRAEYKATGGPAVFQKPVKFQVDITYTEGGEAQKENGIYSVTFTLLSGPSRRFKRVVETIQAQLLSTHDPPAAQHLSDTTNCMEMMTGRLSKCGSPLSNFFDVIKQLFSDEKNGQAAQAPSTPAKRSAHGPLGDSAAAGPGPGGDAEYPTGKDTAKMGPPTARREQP
RSK2, sequence (P51812 whole entry, species assumed): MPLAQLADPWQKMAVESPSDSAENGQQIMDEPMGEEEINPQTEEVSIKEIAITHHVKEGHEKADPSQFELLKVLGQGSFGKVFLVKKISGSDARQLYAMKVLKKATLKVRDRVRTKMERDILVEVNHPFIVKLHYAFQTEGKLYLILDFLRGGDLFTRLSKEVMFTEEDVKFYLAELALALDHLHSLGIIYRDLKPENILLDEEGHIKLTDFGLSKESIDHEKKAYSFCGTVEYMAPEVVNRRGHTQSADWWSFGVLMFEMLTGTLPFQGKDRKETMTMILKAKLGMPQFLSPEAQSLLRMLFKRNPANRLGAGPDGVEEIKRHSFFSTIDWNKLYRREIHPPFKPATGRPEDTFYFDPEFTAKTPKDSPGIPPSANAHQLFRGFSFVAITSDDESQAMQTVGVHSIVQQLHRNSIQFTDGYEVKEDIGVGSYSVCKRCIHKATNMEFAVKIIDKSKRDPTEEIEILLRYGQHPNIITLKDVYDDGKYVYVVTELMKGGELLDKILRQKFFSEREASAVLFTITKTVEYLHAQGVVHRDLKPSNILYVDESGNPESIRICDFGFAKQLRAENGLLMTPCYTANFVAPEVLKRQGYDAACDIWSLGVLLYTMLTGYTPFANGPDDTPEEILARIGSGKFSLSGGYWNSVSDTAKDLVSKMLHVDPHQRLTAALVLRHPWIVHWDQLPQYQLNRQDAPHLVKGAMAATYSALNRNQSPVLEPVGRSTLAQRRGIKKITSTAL
NEK7, sequence (Q8TDX7 whole entry, species assumed): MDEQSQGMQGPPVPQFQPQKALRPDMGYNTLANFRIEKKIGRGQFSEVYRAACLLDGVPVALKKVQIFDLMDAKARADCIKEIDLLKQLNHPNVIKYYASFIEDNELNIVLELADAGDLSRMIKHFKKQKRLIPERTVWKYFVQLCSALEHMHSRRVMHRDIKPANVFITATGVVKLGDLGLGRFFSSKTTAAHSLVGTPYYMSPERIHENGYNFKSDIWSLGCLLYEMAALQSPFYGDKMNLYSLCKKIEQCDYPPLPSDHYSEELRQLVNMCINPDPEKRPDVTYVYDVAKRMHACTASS
SGK1, sequence (O00141 whole entry, species assumed): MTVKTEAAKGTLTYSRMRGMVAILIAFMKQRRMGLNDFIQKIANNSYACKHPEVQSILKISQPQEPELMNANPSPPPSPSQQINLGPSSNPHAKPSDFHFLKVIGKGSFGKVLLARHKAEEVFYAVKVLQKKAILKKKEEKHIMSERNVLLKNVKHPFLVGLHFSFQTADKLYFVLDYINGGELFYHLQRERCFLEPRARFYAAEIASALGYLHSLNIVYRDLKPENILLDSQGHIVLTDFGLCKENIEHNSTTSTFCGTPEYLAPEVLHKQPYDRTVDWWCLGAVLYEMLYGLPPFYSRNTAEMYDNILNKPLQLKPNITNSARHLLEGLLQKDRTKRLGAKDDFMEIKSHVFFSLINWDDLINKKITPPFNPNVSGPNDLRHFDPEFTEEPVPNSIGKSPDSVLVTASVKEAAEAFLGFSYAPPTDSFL
PAK5, sequence (Q9P286 whole entry): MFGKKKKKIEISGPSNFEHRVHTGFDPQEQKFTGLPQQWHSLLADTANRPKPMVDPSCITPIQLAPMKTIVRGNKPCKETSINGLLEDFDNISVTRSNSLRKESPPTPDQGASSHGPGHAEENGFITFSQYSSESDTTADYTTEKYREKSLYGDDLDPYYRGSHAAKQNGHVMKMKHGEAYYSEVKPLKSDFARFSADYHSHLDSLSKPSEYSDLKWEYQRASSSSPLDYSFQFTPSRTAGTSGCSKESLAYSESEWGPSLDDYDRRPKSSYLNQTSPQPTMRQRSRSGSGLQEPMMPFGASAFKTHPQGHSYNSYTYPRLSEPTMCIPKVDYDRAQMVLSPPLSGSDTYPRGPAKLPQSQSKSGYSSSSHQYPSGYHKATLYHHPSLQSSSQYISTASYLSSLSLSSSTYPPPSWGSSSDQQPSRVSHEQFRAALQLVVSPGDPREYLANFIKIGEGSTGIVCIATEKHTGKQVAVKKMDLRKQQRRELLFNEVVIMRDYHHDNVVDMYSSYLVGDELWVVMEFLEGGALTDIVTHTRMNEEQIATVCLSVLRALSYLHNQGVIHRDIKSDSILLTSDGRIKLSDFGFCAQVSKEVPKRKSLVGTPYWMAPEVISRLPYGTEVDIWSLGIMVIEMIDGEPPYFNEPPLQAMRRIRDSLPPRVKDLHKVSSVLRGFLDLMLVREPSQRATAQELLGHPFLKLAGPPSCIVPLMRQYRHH
MELK, sequence (Q14680 whole entry, species assumed): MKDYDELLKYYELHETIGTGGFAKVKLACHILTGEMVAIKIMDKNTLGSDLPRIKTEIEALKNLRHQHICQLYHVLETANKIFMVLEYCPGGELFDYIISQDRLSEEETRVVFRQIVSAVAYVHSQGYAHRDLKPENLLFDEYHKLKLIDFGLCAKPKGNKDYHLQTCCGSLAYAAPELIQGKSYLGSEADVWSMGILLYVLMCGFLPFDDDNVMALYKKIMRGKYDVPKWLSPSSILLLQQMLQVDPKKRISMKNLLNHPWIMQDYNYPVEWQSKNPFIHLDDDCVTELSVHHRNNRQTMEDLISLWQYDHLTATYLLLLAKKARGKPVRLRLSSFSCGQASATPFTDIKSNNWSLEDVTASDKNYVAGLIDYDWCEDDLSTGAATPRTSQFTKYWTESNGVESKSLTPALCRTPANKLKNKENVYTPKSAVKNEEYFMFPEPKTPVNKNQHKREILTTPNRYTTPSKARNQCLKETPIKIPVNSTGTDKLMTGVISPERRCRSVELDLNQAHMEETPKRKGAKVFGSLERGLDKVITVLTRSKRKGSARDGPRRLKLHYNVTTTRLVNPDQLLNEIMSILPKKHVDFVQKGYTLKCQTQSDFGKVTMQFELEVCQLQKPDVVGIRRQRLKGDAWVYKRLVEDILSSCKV
MNK2, sequence (Q9HBH9 whole entry, species assumed): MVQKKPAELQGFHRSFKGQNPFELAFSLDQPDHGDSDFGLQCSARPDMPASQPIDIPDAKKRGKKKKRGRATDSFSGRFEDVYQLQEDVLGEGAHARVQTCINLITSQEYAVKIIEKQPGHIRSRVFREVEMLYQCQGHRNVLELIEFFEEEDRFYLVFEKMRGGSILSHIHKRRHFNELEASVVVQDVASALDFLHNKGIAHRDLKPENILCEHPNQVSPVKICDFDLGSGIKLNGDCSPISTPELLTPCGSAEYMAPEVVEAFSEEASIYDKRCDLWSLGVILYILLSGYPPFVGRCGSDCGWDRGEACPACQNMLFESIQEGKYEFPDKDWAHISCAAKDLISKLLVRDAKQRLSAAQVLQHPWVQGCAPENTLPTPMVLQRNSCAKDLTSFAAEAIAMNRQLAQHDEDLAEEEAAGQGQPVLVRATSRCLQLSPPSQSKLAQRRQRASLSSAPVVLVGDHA
p38g MAPK, sequence (P53778 whole entry): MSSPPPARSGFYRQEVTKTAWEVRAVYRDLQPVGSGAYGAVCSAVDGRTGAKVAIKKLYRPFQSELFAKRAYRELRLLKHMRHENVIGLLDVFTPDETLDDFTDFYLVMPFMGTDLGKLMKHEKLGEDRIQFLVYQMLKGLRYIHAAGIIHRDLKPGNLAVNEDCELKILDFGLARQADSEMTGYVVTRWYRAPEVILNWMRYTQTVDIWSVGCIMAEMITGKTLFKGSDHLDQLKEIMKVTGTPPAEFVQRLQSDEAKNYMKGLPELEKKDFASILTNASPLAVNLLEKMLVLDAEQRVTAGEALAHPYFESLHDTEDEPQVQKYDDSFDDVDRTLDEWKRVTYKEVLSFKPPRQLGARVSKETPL

Row | SMILES | remaining activity at 10 µM (NEK6) | remaining activity at 10 µM (EF2K) | % residual activity SmMLCK (SmMLCK) | remaining activity at 10 µM (MARK3) | remaining activity at 10 µM (PAK6) | remaining activity at 10 µM (MNK1) | remaining activity at 10 µM (CHK2) | remaining activity at 10 µM (CDK2/cyclin A) | remaining activity at 10 µM (PAK5) | % residual activity AMPK (AMPK) | remaining activity at 10 µM (Aurora B) | remaining activity at 10 µM (MNK2) | remaining activity at 10 µM (MELK) | remaining activity at 10 µM (RSK2) | remaining activity at 10 µM (NEK7) | remaining activity at 10 µM (BRSK2) | remaining activity at 10 µM (SGK1) | remaining activity at 10 µM (JNK3) | remaining activity at 10 µM (SRPK1) | remaining activity at 10 µM (p38g MAPK) | further results
1 | c1ccc2c(c1)[nH]c1c2ccc2cc[nH]c21 [Example 2, 1,10-dihydropyrrolo[2,3-a]carbazole] | 90% | 101% | 86% | 116% | 92% | 69% | 58% | 97% | 82% | 80% | 67% | 95% | 93% | 129% | 96% | 58% | 82% | 108% | 90% | 111% | remaining activity at 10 µM (PIM-2; [1]): 62%; remaining activity at 10 µM (PIM-2; [2]): 62%; remaining activity at 10 µM (PIM-3; [3]): 10%; remaining activity at 10 µM (PIM-3; [4]): 10%; remaining activity at 10 µM (PIM-1; [5]): 20%; remaining activity at 10 µM (PIM-1; [6]): 20%; % residual activity CK1 (CK1): 107%; remaining activity at 10 µM (ERK2): 94%; remaining activity at 10 µM (MKK1): 87%; remaining activity at 10 µM (Lck): 88%; % residual activity CK2 (CK2): 91%; remaining activity at 10 µM (ROCK2): 86%; remaining activity at 10 µM (RSK1): 105%
2 | O=Cc1c[nH]c2c1ccc1c3ccccc3[nH]c12 [Example 3, 1,10-dihydropyrrolo[2,3-a]carbazole-3-carbaldehyde] | 78% | 90% | 60% | 88% | 94% | 27% | 38% | 74% | 87% | 59% | 68% | 55% | 61% | 124% | 89% | 22% | 64% | 113% | 84% | 74% | –
3 | NC(=O)c1c[nH]c2c1ccc1c3ccccc3[nH]c12 [Example 5, 1,10-dihydropyrrolo[2,3-a]carbazole-3-carboxamide] | 83% | 92% | 69% | 73% | 83% | 19% | 44% | 53% | 70% | 85% | 65% | 57% | 80% | 97% | 89% | 32% | 71% | 104% | 93% | 96% | remaining activity at 10 µM (PIM-2; [1]): 27%; remaining activity at 10 µM (PIM-2; [2]): 27%; remaining activity at 10 µM (PIM-3; [3]): 9%; remaining activity at 10 µM (PIM-3; [4]): 9%; IC50 (PIM-3; [7]): 210 nM; remaining activity at 10 µM (PIM-1; [5]): 9%; remaining activity at 10 µM (PIM-1; [6]): 9%; IC50 (PIM-1; [7]): 780 nM; % residual activity CK1 (CK1): 96%; remaining activity at 10 µM (ERK2): 93%; remaining activity at 10 µM (MKK1): 80%; remaining activity at 10 µM (Lck): 78%; % residual activity CK2 (CK2): 77%; remaining activity at 10 µM (ROCK2): 48%; remaining activity at 10 µM (RSK1): 79%
